Laboratory results reported in paper PMC11149917, “Translational and Therapeutic Evaluation of RAS-GTP Inhibition by RMC-6236 in RAS-Driven Cancers” (Cancer Discovery, 2024).
Like-named read-outs stand apart in the source and are kept apart here.

Assay: Mouse blood and tissue PK (LC/MS-MS)
Type: in vivo
Conditions: mouse; for half-life: po, read-out: Tumor t1/2 (converted)
Method: For single-dose PKPD study, mice were randomized and assigned into groups (n = 3/dose/time point). […] Blood and tissues, including the tumor, brain, colon, ear skin, and muscle, were harvested at indicated time points. […] The whole blood, tumor, brain, colon, and ear skin concentrations of RMC-6236 were determined using liquid chromatography–tandem mass spectrometry (LC/MS-MS) methods. […] After thorough mixing and centrifugation, the supernatant was diluted with water or directly analyzed on a Sciex 5500 or Sciex 6500+ triple quadrupole mass spectrometer equipped with an ACQUITY or Shimadzu UPLC system. […] Bioanalysis on blood and tissue samples from xenograft models was run at Pharmaron and Wuxi AppTec. Concentrations reported as below the quantification limit were treated as zero for PK analysis. PK parameters were calculated by noncompartmental analysis of the concentration–time profiles using Phoenix WinNonLin (version 8.3 Certara). Apparent terminal elimination half-life (t1/2) values were calculated as ln(2)/k, where k represents the terminal elimination rate constant. Area under the concentration–time curve (AUC) values were estimated using a linear trapezoidal method. AUClast values were calculated from the dosing time to the last quantifiable concentration. Maximum concentration (Cmax) was recorded as observed.

[1] = whole blood, oral, 10 mg/kg, Model Validation Dataset, 10mg/kg_study6, read-out: Blood Concentration
[2] = whole blood, oral, 25 mg/kg, Model Development Dataset, 25mg/kg_study8, read-out: Blood Concentration
[3] = whole blood, oral, 25 mg/kg, Model Development Dataset, 25mg/kg_study8r (doses every 24 h, 0-[…])
[4] = whole blood, oral, 25 mg/kg, Model Validation Dataset, 25mg/kg_study6, read-out: Blood Concentration
[5] = whole blood, oral, 40 mg/kg, Model Development Dataset, 40mg/kg_study8, read-out: Blood Concentration
[6] = whole blood, oral, 40 mg/kg, Model Development Dataset, 40mg/kg_study8r (doses every 24 h, 0-[…])
[7] = whole blood, oral, 50 mg/kg, Model Validation Dataset, 50mg/kg_study6, read-out: Blood Concentration

## CCn1c(-c2cc(N3CCN(C)CC3)cnc2[C@H](C)OC)c2c3cc(ccc31)-c1csc(n1)C[C@H](NC(=O)[C@H]1C[C@@H]1C)C(=O)N1CCC[C@H](N1)C(=O)OCC(C)(C)C2 [RMC-6236]
tumor, oral, 50 mg/kg, Model Validation Dataset, 50mg/kg_study6, 24 h, read-out: Tumor Concentration
  concentration at 24 h: 2100 nM
tumor, oral, 50 mg/kg, Model Validation Dataset, 50mg/kg_study6, 48 h, read-out: Tumor Concentration
  concentration at 48 h: 1240 nM
tumor, oral, 50 mg/kg, Model Validation Dataset, 50mg/kg_study6, 72 h
  concentration at 72 h: 621 nM
tumor, oral, 50 mg/kg, NCI-H441 xenograft tumor, study NCI-H441#6, 50 mg/kg, 8h, read-out: RMC-6236 (nM) Tumor
  concentration at 8 h: 4770 nM
tumor, oral, 50 mg/kg, NCI-H441 xenograft tumor, study NCI-H441#6, 50 mg/kg, 24h, read-out: RMC-6236 (nM) Tumor
  concentration at 24 h: 1960 nM
tumor, oral, 100 mg/kg, KP-4, study KP-4 #4, 100 mg/kg, 8h, read-out: RMC-6236 (nM) Tumor
  concentration at 8 h: 10200 nM
tumor, oral, 100 mg/kg, KP-4, study KP-4 #4, 100 mg/kg, 24h, read-out: RMC-6236 (nM) Tumor
  concentration at 24 h: 7000 nM
tumor, oral, 100 mg/kg, NCI-H441 xenograft tumor, study NCI-H441#6, 100 mg/kg, 24h, read-out: RMC-6236 (nM) Tumor
  concentration at 24 h: 3020 nM
tumor, oral, 100 mg/kg, NCI-H441 xenograft tumor, study NCI-H441#6, 100 mg/kg, 48h, read-out: RMC-6236 (nM) Tumor
  concentration at 48 h: 2060 nM
tumor, 3 mg/kg, NCI-H441 (3 mg/kg), single dose
  half-life: 17.1 h
tumor, 25 mg/kg, HPAC (25 mg/kg), single dose
  half-life: 14 h
tumor, 25 mg/kg, KP-4 (25 mg/kg), single dose
  half-life: 11.3 h
tumor, 25 mg/kg, NCI-H358 (25 mg/kg), single dose
  half-life: 10.2 h
tumor, 25 mg/kg, NCI-H441 (25 mg/kg), single dose
  half-life: 46.1 h
Whole blood, oral, 10 mg/kg, Model Validation Dataset, 10mg/kg_study6
  concentration at 0.5 h: 435 nM
[1]
  concentration at 1 h: 642 nM
  concentration at 2 h: 642 nM
  concentration at 4 h: 441 nM
Whole blood, oral, 10 mg/kg, Model Validation Dataset, 10mg/kg_study6, 8 h, read-out: Blood Concentration
  concentration at 8 h: 309 nM
Whole blood, oral, 10 mg/kg, Model Validation Dataset, 10mg/kg_study6, 24 h, read-out: Blood Concentration
  concentration at 24 h: 3.91 nM
Whole blood, oral, 10 mg/kg, Naïve Mice #1 (10 mg/kg), single dose
  Cmax: 744 ng/mL
Whole blood, oral, 25 mg/kg, Model Development Dataset, 25mg/kg_study8
  concentration at 0.5 h: 806 nM
[2]
  concentration at 1 h: 979 nM
  concentration at 2 h: 1410 nM
  concentration at 4 h: 1430 nM
Whole blood, oral, 25 mg/kg, Model Development Dataset, 25mg/kg_study8, 8 h, read-out: Blood Concentration
  concentration at 8 h: 802 nM
Whole blood, oral, 25 mg/kg, Model Development Dataset, 25mg/kg_study8, 24 h, read-out: Blood Concentration
  concentration at 24 h: 7.71 nM
[3]
  concentration at 216.5 h: 1180 nM
  concentration at 220 h: 849 nM
Whole blood, oral, 25 mg/kg, Model Development Dataset, 25mg/kg_study8r (doses every 24 h, 0-[…]), read-out: Blood Concentration
  concentration at 240 h: 5.4 nM
Whole blood, oral, 25 mg/kg, Model Validation Dataset, 25mg/kg_study6
  concentration at 0.5 h: 598 nM
[4]
  concentration at 1 h: 885 nM
  concentration at 2 h: 1540 nM
  concentration at 4 h: 1140 nM
Whole blood, oral, 25 mg/kg, Model Validation Dataset, 25mg/kg_study6, 8 h, read-out: Blood Concentration
  concentration at 8 h: 755 nM
Whole blood, oral, 25 mg/kg, Model Validation Dataset, 25mg/kg_study6, 24 h, read-out: Blood Concentration
  concentration at 24 h: 15.6 nM
Whole blood, oral, 40 mg/kg, Model Development Dataset, 40mg/kg_study8
  concentration at 0.5 h: 1320 nM
[5]
  concentration at 1 h: 1580 nM
  concentration at 2 h: 2770 nM
  concentration at 4 h: 1480 nM
Whole blood, oral, 40 mg/kg, Model Development Dataset, 40mg/kg_study8, 8 h, read-out: Blood Concentration
  concentration at 8 h: 1200 nM
Whole blood, oral, 40 mg/kg, Model Development Dataset, 40mg/kg_study8, 24 h, read-out: Blood Concentration
  concentration at 24 h: 8 nM
[6]
  concentration at 216.5 h: 1760 nM
  concentration at 220 h: 1550 nM
Whole blood, oral, 40 mg/kg, Model Development Dataset, 40mg/kg_study8r (doses every 24 h, 0-[…]), read-out: Blood Concentration
  concentration at 240 h: 7.54 nM
Whole blood, oral, 50 mg/kg, Model Validation Dataset, 50mg/kg_study6
  concentration at 0.5 h: 1420 nM
[7]
  concentration at 1 h: 1820 nM
  concentration at 2 h: 2770 nM
